Like-named read-outs stand apart in the source and are kept apart here. Marks after values point to notes of the source that are not given here.
Legend:
K562 cells [1] = assay: MTT cytotoxicity assay, FN adhered vs suspension; format: cell-based
Description: Plastic 96-well Immunosorp plates (Nunc, Denmark) are coated with 50 μl (40 μg/ml) FN (Life Technologies) or BSA overnight. Cells are washed once and resuspended in serum-free RPMI 1640, then 2×10^4 (K562) cells are added to each FN coated well. 8×10^3 (K562) cells are added to BSA coated wells. Cells are incubated for 2 hours at 37° C., washed with serum free media, and put back into serum-containing media. Following 24 hours in a tissue culture incubator, drug or vehicle control is added to each well for 90 minutes, media is removed and replaced by drug-free media for 96 hours. In some experiments, the drug is allowed to remain in each well for 96 hours. 50 μl 3-[4,5-Dimethylthiazol-2-yl]-2,5-diphenyltetrazolium bromide; Thiazolyl blue (MTT dye) (Sigma) is added to each well for 4 hours, plates are centrifuged and each well aspirated. Dye is solubilized with 100 μl DMSO and plates are read at 540 nm on an automated microtiter plate reader. A blank well containing only medium and drug is also run as a control in all experiments. IC50 values are calculated by linear regression analysis of percent survival vs. drug concentration.
The MTT assay is used to detect differences in the drug sensitivity of FN adhered vs. suspension-cultured cells following a 90 minutes or 96 hours (continuous) exposure to either mitoxantrone or melphalan (L-phenylalanine mustard or LPAM). After a 96 hour period in a cell incubator, cell survival is determined by the ability of viable cells to reduce MTT dye to formazan. IC50 values are derived through linear regression of the log-linear dose-response plots for each cell line to each drug. Student's T-test is used to analyze differences in drug response using data collected from at least three different experiments. FIGS. 8A and 8B depict representative continuous exposure experiments using mitoxantrone and LPAM, respectively.

K562 cells [2] = assay: Adhesion of K562 cells to FN in presence of BCR/ABL inhibitor; format: cell-based; conditions: at the concentrations of inhibitor used in cytotoxicity assays
Description: Cellular adhesion to FN is determined. In some experiments, cells are pre-incubated for 15 minutes with P4G9, P1D6, P4C10, B3B11, or isotype antibody controls prior to application to wells.
The BCR/ABL kinase is believed to be critical to the survival of CML cells through its effects on a number of signal transduction pathways. Inhibitors of this fusion protein show promise as apoptosis-inducing drugs in CML cells. BCR/ABL inhibition by relatively high doses of the tyrphostin AG957 can have negative effects on FN adhesion. At the concentrations of inhibitor used in cytotoxicity assays, the adhesion of K562 cells to FN is not affected by more than 20-40 percent.

[3] = system: BCR/ABL-associated tyrosine kinase activity; assay: Anti-phosphotyrosine Western blotting; conditions: K562 cells, 20 μM, 4 hour treatment
K562 cells [4] = assay: Annexin V apoptosis analysis, FN adhered vs suspension; format: cell-based
8226/S cells = assay: Adhesion of 8226 cells to fibronectin after bisphosphonate treatment; format: cell-based, human; conditions: 100 micromolar for 1.5 hours before plating
8226/S myeloma cells [5] = assay: Annexin V flow cytometry analysis of apoptosis, FN-adhered vs non-adhered; format: cell-based, human
8226/S = format: cell-based, human
K562/VLA-4 cells = assay: Annexin V apoptosis, FN adhesion with integrin blocking antibodies; format: cell-based; conditions: 100 μM, 90 minutes
8226/S myeloma cells [6] = assay: MTT cytotoxicity assay, FN-adhered vs BSA/non-adhered cells; format: cell-based, human; conditions: for IC50: Homo sapiens; for mean difference FN-adhered vs BSA: n=3, 1 hour drug exposure
K562/pcDNA3.1 cells = assay: Annexin V apoptosis, FN adhesion with integrin blocking antibodies; format: cell-based; conditions: 100 μM, 90 minutes
[7] = α4 blocking antibody prior to FN adhesion
[8] = α5 blocking antibody prior to adhesion
[9] = 1 uM, 1 hour exposure, Annexin V 24 hours later

COC(=O)c1ccc(NCc2cc(O)ccc2O)cc1 [AG957]
IC50 (K562 cells [1]; FN adhered, continuous exposure (96 hours), read-out: Fibronectin mean IC50): 12.9 µM
Fold resistance (FN adhered over suspension) (K562 cells [1]; continuous exposure (96 hours)): 3.6 fold
IC50 (K562 cells [1]; continuous exposure (96 hours), read-out: Suspension mean IC50): 3.6 µM
effect on adhesion of K562 cells to FN (K562 cells [2]): 20-40%
BCR/ABL associated tyrosine phosphorylation [3]: completely abrogated

Nc1ccn([C@@H]2O[C@H](CO)[C@@H](O)[C@@H]2O)c(=O)n1 [Ara-C]
% Control death (K562 cells [4]; 100 μM, cont. exp.): 54.9* %
FN: mean death (K562 cells [4]; 100 μM, cont. exp.): 6.2 ± 1.6%
Suspension: mean death (K562 cells [4]; 100 μM, cont. exp.): 11.3 ± 5.5%

O=C(O)CN(CCN(CC(=O)O)CC(=O)O)CC(=O)O [EDTA]
effect on adhesion to fibronectin (FN) coated plates (8226/S cells): does not significantly affect cellular adhesion

N[C@@H](Cc1ccc(N(CCCl)CCCl)cc1)C(=O)O [LPAM, L-phenylalanine nitrogen mustard]
percentage of apoptotic cells, FN-adhered (8226/S myeloma cells [5]; 50 uM, 24 hours): 16.53%
percentage of apoptotic cells, non-adhered (8226/S myeloma cells [5]; 50 uM, 24 hours): 21.5%
effect on cell surface integrin expression (8226/S): no immediate effects
IC50 (K562 cells [1]; Homo sapiens, K562, 1.5 h, read-out: Fibronectin mean IC50): 190 µM
IC50 (K562 cells [1]; Homo sapiens, K562, 1.5 h, read-out: Suspension mean IC50): 29.3 µM
IC50 (K562 cells [1]; Homo sapiens, K562, 96 h, read-out: Fibronectin mean IC50): 57.3 µM
IC50 (K562 cells [1]; Homo sapiens, K562, 96 h, read-out: Suspension mean IC50): 25.5 µM
Fold resistance (FN adhered over suspension) (K562 cells [1]; continuous exposure (96 hours)): 2.25 fold
level of cytoprotection by FN adhesion (in comparison to drug treated suspension cells) (K562/VLA-4 cells; adhering through α4 and α5): 30.0±1.5%
level of cytoprotection by FN adhesion (K562/VLA-4 cells; [7]): 28.4±5.0%
level of cytoprotection by FN adhesion (K562/VLA-4 cells; [8]): 20.6±1.9%
IC50 (8226/S myeloma cells [6]; 1 h, read-out: mean IC50, cells grown on BSA): 30 µM
IC50 (8226/S myeloma cells [6]; read-out: mean IC50, FN-adhered cells): 48 µM
mean difference FN-adhered vs BSA (8226/S myeloma cells [6]): 1.7
% Control death (K562 cells [4]; 100 μM, 1 hr): 29.3* %
FN: mean death (K562 cells [4]; 100 μM, 1 hr): 11.0 ± 8.3%
Suspension: mean death (K562 cells [4]; 100 μM, 1 hr): 37.5 ± 24.0%
% Control death (K562 cells [4]; 100 μM, cont. exp.): 58.5* %
FN: mean death (K562 cells [4]; 100 μM, cont. exp.): 23.3 ± 6.4%
Suspension: mean death (K562 cells [4]; 100 μM, cont. exp.): 39.8 ± 3.2%
level of cytoprotection by FN adhesion (in comparison to drug treated suspension cells) (K562/pcDNA3.1 cells; adhered through α5 alone): 29.9±5.3%
level of cytoprotection by FN adhesion (K562/pcDNA3.1 cells; [7]): 29.6±2.3%
level of cytoprotection by FN adhesion (K562/pcDNA3.1 cells; [8]): 0±11.1%

O=C1c2c(O)ccc(O)c2C(=O)c2c(NCCNCCO)ccc(NCCNCCO)c21 [Mitoxantrone, mitoxantrone]
Fold resistance (FN adhered over suspension) (K562 cells [1]; 90 min. exposure): 3.72 fold
Fold resistance (FN adhered over suspension) (K562 cells [1]; 90 min. exposure, listed as mitoxantrone): approximately 3.7 fold
IC50 (K562 cells [1]; Homo sapiens, K562, 1.5 h, 90 min. exposure, read-out: Suspension mean IC50): 0.206 µM
IC50 (K562 cells [1]; Homo sapiens, K562, 1.5 h, FN adhered, 90 min. exposure, read-out: Fibronectin mean IC50): 0.767 µM
IC50 (K562 cells [1]; Homo sapiens, K562, FN adhered, continuous exposure (96 hours), read-out: Fibronectin mean IC50): 0.327 µM
IC50 (K562 cells [1]; Homo sapiens, K562, continuous exposure (96 hours), read-out: Suspension mean IC50): 0.0479 µM
Fold resistance (FN adhered over suspension) (K562 cells [1]; continuous exposure (96 hours)): 6.83 fold
Fold resistance (FN adhered over suspension) (K562 cells [1]; continuous exposure (96 hours), listed as mitoxantrone): 6.8 fold
% Control death (K562 cells [4]; 10 μM, cont. exp.): 69.4* %
FN: mean death (K562 cells [4]; 10 μM, cont. exp.): 29.7 ± 6.2%
Suspension: mean death (K562 cells [4]; 10 μM, cont. exp.): 42.8 ± 8.4%
% Control death (K562 cells [4]; 50 μM, 1 hr): 58.3* %
FN: mean death (K562 cells [4]; 50 μM, 1 hr): 27.0 ± 9.4%
Suspension: mean death (K562 cells [4]; 50 μM, 1 hr): 46.3 ± 8.4%

NCCC(O)(P(=O)(O)O)P(=O)(O)O [Pamidronate, 3-Amino-1-hydroxypropane-1,1-diphosphonic acid]
effect on adhesion to fibronectin (FN) coated plates (8226/S cells): effective in preventing FN adhesion

CC[C@]1(O)C[C@H]2CN(CCc3c([nH]c4ccccc34)[C@@](C(=O)OC)(c3cc4c(cc3OC)N(C=O)[C@H]3[C@@](O)(C(=O)OC)[C@H](OC(C)=O)[C@]5(CC)C=CCN6CC[C@]43[C@@H]65)C2)C1 [VCR, vincristine]
% Control death (K562 cells [4]; 10 μM, cont. exp.): 70.2%
FN: mean death (K562 cells [4]; 10 μM, cont. exp.): 12.5 ± 2.3%
Suspension: mean death (K562 cells [4]; 10 μM, cont. exp.): 17.8 ± 6.4%

O=P(O)(O)C(O)(Cn1ccnc1)P(=O)(O)O [Zoledronate]
effect on adhesion to fibronectin (FN) coated plates (8226/S cells): effective in preventing FN adhesion

COc1cccc2c1C(=O)c1c(O)c3c(c(O)c1C2=O)C[C@@](O)(C(=O)CO)C[C@@H]3O[C@H]1C[C@H](N)[C@H](O)[C@H](C)O1 [doxorubicin]
percentage of apoptotic cells, FN-adhered (8226/S myeloma cells [5]; [9]): 16.3%
percentage of apoptotic cells, non-adhered controls (8226/S myeloma cells [5]; [9]): 40.3%
effect on cell surface integrin expression (8226/S; acute exposure, wide range of concentrations, 1-48 hours): no immediate effects
Response lower in FN-adhered cells compared to non-adhered controls (8226/S myeloma cells [6]; FIG. 1, one hour drug exposure): 12.6 fold
IC50 (8226/S myeloma cells [6]; 1 h, grown in suspension, one hour drug exposure, representative experiment FIG. 1, read-out: IC50, non-adhered cells): 0.085 µM
IC50 (8226/S myeloma cells [6]; 1 hour drug exposure, n=3, read-out: mean IC50, cells grown on BSA): 0.52 µM
IC50 (8226/S myeloma cells [6]; 24 hour pre-adhesion, 1 hour drug exposure, n=3, read-out: mean IC50, FN-adhered cells): 1.63 µM
IC50 (8226/S myeloma cells [6]; FN-adhered 24 hours prior to one hour drug exposure, representative experiment FIG. 1, read-out: IC50, adhered cells): 0.485 µM
mean difference FN-adhered vs BSA (8226/S myeloma cells [6]): 6.9
survival (mitogenic effect) (8226/S myeloma cells [6]; subtoxic concentrations, FN-adhered cells): > 100%
